According to patent US11229680B2, “Autophagy inhibitors” (The Hong Kong University of Science and Technology, priority 2017, dated 2022):
Several values for one entry are separate records, joined by “and”; a condition that tells them apart may be missing. Equal entries are not always repeated.

Assays:
[1] = tested on: LC3s (LC3A, LC3B, LC3C); details: recently identified LC3 binding sequence (Cheng et al., 2016; Olsvik et al., 2015); cited from earlier work
[2] = tested on: all members of the Atg8 family; assay: ITC binding to all members of the Atg8 family; design: species or system human
From the text: The 440 kD AnkB and 480 kD AnkG both contain a giant exon encoding several thousand amino acid residues, though the homology between the two giant exon coding sequences is very limited. The 440 kD AnkB is also a neuronal specific isoform, and is mainly expressed in unmyelinated/premyelinated axons.
Thus, we will not describe the overall structures of the two complexes any further, except to note that the AnkB LIR also contains a well-defined C-helix extension following the LIR core motif.

[3] = target: LGG-1 (Caenorhabditis elegans, UniProt Q09490); assay: ITC binding to purified LGG-1; design: species or system C. elegans
Sequence of LGG-1 (Q09490 1-116 limits assumed): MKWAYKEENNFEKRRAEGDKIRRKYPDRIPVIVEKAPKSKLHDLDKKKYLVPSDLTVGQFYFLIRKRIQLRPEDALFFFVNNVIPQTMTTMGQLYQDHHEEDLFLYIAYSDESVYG
From the text: (§1) C. elegans provides an ideal platform to study autophagy and especially to investigate roles of different members of Atg8 in autophagy, because worms contain both GABARAP and LC3 subfamily Atg8s and yet simple enough with one gene for each subfamily (worm lgg-1 and lgg-2 are […] of GABARAP and LC3, respectively). It has also been shown earlier on that lgg-1 and lgg-2 act non-redundantly in autophagy (Wu et al., 2015). Prior to performing autophagy assays in worms, we measured the bindings of various AnkB/G LIR peptides to purified LGG-1 and LGG-2 using the same method as we have described for FIGS. 1&3.

[4] = target: T1, LGG-2 (Caenorhabditis elegans, UniProt Q23536); assay: ITC binding to purified LGG-2; design: species or system C. elegans
T1 sequence (Q23536 1-130): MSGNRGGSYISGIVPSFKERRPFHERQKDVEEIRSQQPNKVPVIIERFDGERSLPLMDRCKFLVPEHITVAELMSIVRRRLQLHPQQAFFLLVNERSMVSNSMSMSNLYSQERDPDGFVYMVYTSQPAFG
From the text: as §1

[5] = tested on: LC3-positive puncta in COS7 cells; assay: LC3-positive puncta in starved COS7 cells; assay type: cell-based; details: COS7 cells over-expressing mCherry-tagged peptide, nutrients deprivation
From the text: (§2) We used the well-established cultured COS7 cells for assessing autophagy inhibitions by the AnkB/G LIR peptides over-expressed in the cells. We quantified the numbers of endogenous LC3- or GABARAP-positive puncta, which represent LC3 or GABARAP-containing autophagic structures, as readouts to quantify autophagy inhibitions (Klionsky et al., 2016; Mizushima et al., 2010). After nutrients deprivation, obvious accumulations of LC3- or GABARAP-positive puncta could be observed in cells over-expressing mCherry only, indicating induction of autophagy by starvation (FIG. 6C6&E6). […] In contrast, expression of the mCherry-AnkB WR peptide had no impact on the LC3- or GABARAP-puncta numbers (i.e. with the same puncta numbers as expressing the mCherry vector control; FIG. 6C-F).

[6] = tested on: GABARAP-positive puncta in COS7 cells; assay: GABARAP-positive puncta in starved COS7 cells; assay type: cell-based; details: COS7 cells over-expressing mCherry-tagged peptide, nutrients deprivation
From the text: as §2

[7] = tested on: p62-positive puncta in COS7 cells; assay: p62-positive puncta in starved COS7 cells; assay type: cell-based; details: starvation; for p62-positive puncta versus mCherry vector control: COS7 cells expressing mCherry-tagged peptide
From the text: We further quantified the level of p62, one of the best studied selective autophagy substrates, to monitor the autophagic flux in COS7 cells expressing various AnkB/G LIR peptides under the starvation condition (Klionsky et al., 2016; Mizushima et al., 2010). Upon autophagy induction, p62 forms aggregates via its LIR motif-mediated interactions to Atg8s and subsequent incorporation into autophagosomes (Bjorkoy et al., 2005; Pankiv et al., 2007). Only a relatively low and steady level of p62 aggregates is formed if autophagy flux is normal (i.e. p62-positive autophagosomes are steadily cleared by fusing with lysosomes; (Bjorkoy et al., 2005)), and this is indeed the case when cells were expressed with the mCherry vector control (FIG. 7F). […] This is consistent with a previous siRNA-based study showing that knockdown of LC3 but not GABARAP causes p62 accumulation in COS7 cells (Maruyama et al., 2014). Taken together, the above cell-based assays reinforce our earlier conclusion derived from biochemical and structural studies, that the AnkB WT peptide can function as potent autophagy inhibitor by targeting all members of the Atg8 family and the AnkG WT or ER peptides can selectively target the GABARAPs and spare the LC3s.

[8] = tested on: SQST-1::GFP; assay: SQST-1::GFP aggregate accumulation in C. elegans expressing the peptides; assay type: in vivo
From the text: We next determined whether the AnkB WT peptide blocks autophagy in C. elegans. Autophagy is required for degradation of a variety of protein substrates, including the C. elegans p62 homolog SQST-1 during development (Tian et al., 2010). In the wild type animals, SQST-1::GFP is weakly expressed and diffusely localized in the cytoplasm, while numerous SQST-1 aggregates accumulate in autophagy mutants (Tian et al., 2010). The AnkB WT peptide fused with the Cherry reporter (Cherry::AnkB WT) or Cherry::AnkB WR was expressed under the control of the nfya-1 promoter, which is expressed ubiquitously from the embryonic to adult stages. The expression plasmids were injected into animals carrying integrated SQST-1::GFP reporter (bpIs151) and transgenic lines were obtained and analyzed.
Similarly, we also tested the blocking effect of AnkG peptides in C. elegans. […] This observation is somewhat different from that in mammalian heterologous cells. This may be explained by the different roles of the two families in different organisms. In mammal, p62 degradation is dependent on LC3 but not GABARAP (Maruyama et al., 2014), so blocking GABARAP binding has minimal effect on p62 degradation. However, in C. elegans, LGG-1 acts upstream to LGG-2 (Manil-Segalen et al., 2014; Wu et al., 2015), so blocking either of them will lead to defect in SQST-1 degradation.
Although a large collection of autophagy mutants were isolated from genetic screens (Tian et al., 2010), assays to inhibit autophagy activity in a spatiotemporal manner are not available. We investigated whether the AnkB peptide can block autophagy in a tissue- and temporal-specific manner. The AnkB peptide was expressed under the control of tissue-specific promoters, including the promoter of myo-3 for body wall muscle cells, y37A1B.5 for hypodermal cells and vha-6 for intestinal cells. The expression constructs were injected into animals carrying the corresponding tissue-specific SQST-1::GFP expression integrated lines.
We also examined whether the AnkB peptide can impair autophagy in a temporal control manner. The expression of AnkB WT was driven by the promoter of col-19, which is expressed in hypodermal cells from the young adult stage onwards.

[9] = tested on: C. elegans; assay: C. elegans hatching and development; assay type: in vivo; details: Pnfya-1::Cherry fusion
From the text: Autophagy plays critical roles in various physiological processes occurring during development or in adult C. elegans (Zhang et al., 2015). Fewer autophagy mutants develop into larvae. […] 60.8% embryos expressing the AnkB WT peptide hatched, compared to 96.9% of embryos expressing AnkB WR (FIG. 8G). Autophagy mutants also grow slowly. […] Thus, the AnkB WT peptide blocks autophagy during C. elegans development.

[10] = tested on: C. elegans; assay: C. elegans life span; assay type: in vivo
From the text: Autophagy is known to regulate the adult worm aging process. […] The autophagy defect caused by AnkB was weaker than that in autophagy mutants.

[11] = tested on: GFP-RFP-LC3B puncta in COS7 cells; assay: Autophagosome marker co-localization in COS7 cells co-transfected with GFP-RFP-LC3B; assay type: cell-based; details: Myc tagged peptide, low expression level
From the text: We next tried to explore the potential applications of the Ank-derived peptides as autophagosome markers. The COS7 cells were co-transfected with GFP-RFP-LC3B and Myc tagged AnkB WT or AnkB WR peptides. […] LC3B are mainly localized on the autophagosome as vast majority of the puncta are both green and red (FIG. 11A).

[12] = tested on: GABARAP; assay: ITC binding to GABARAP; design: species or system human
[13] = tested on: LC3s (LC3A, LC3B, LC3C) (Homo sapiens); assay: ITC binding to LC3s
[14] = target: LC3s (LC3A, LC3B, LC3C); assay: ITC binding to LC3s; design: species or system human; details: LC3A, LC3B, LC3C

## FYCO1 LIR: recently identified LC3 binding sequence from FYCO1 with a one-turn helix extension (DDAVFDIITDEELCQIQESGSSLPET; FYCO1 recombinant human sequence, prepared in lab)
[1]
  binding to LC3 compared with bindings of AnkB LIR to Atg8: significantly weaker

## AnkB W1592R: AnkB LIR with Trp1592 substituted by Arg; control for functional studies (VEEERVIVSDEEIEEARQKAPLEITEY; AnkB W1592R human recombinant peptide, prepared in the lab)
[2]
  binding to Atg8 family members (in words): dramatically decreased
[3]
  binding to LGG-1 (in words): eliminated the bindings
[4]; purified LGG-2
  binding to LGG-2 (in words): eliminated the bindings
[5]
  LC3-positive puncta number: no impact
[6]
  GABARAP-positive puncta number: no impact
[7]
  p62-positive puncta versus mCherry vector control: neither of the AnkB/G WR peptides could induce p62-positive puncta increase
[8]; Cherry fusion, FIG. 8, embryo
  SQST-1::GFP aggregates: no SQST-1::GFP aggregates
[8]; Cherry fusion, FIG. 8, larvae
  SQST-1::GFP aggregates: no SQST-1::GFP aggregates
[8]; Cherry fusion, nfya-1 promoter (ubiquitous), multiple tissues, embryonic to adult stages
  SQST-1::GFP aggregates: no SQST-1::GFP aggregates were formed
[8]; mCherry fusion, hypodermal cells, embryo (FIG. 9)
  SQST-1::GFP aggregates: no SQST-1::GFP aggregates
[8]; mCherry fusion, hypodermis, L4 larvae (FIG. 9)
  SQST-1::GFP aggregates: no SQST-1::GFP aggregates
[8]; myo-3 promoter, muscle cells, L4 larvae
  SQST-1::GFP aggregates: no SQST-1::GFP aggregates
[8]; myo-3 promoter, muscle, embryo
  SQST-1::GFP aggregates: no SQST-1::GFP
[8]; tissue-specific promoters myo-3, y37A1B.5, vha-6, embryonic to adult stages
  SQST-1::GFP aggregates: no accumulation
[8]; vha-6 promoter, intestine cells, embryo
  SQST-1::GFP aggregates: no SQST-1::GFP aggregates
[8]; vha-6 promoter, intestine cells, larvae (FIG. 10S, 10T)
  SQST-1::GFP aggregates: no SQST-1::GFP aggregates
[9]
  embryos hatched (hatch rate): 96.9%
[10]; Pmyo-3::ch:: fusion (muscle)
  Median lifespan: 18.72 days
[10]; Pnfya-1::ch:: fusion (ubiquitous)
  Median lifespan: 19.15 days
[10]; Pvha-6::ch:: fusion (intestine)
  Median lifespan: 18.13 days
[10]; Py37a1b.5::ch:: fusion (hypodermal cells)
  Median lifespan: 18.63 days
[11]
  localization relative to GFP-RFP-LC3B dual-color (autophagosome) puncta: diffused in the cells

## CC[C@H](C)[C@H](NC(=O)[C@H](CCC(=O)O)NC(=O)[C@H](CCC(=O)O)NC(=O)[C@H](CO)NC(=O)[C@H](CO)NC(=O)[C@H](Cc1ccccc1)NC(=O)[C@H](CCC(=O)O)NC(=O)[C@@H](NC(=O)[C@H](Cc1c[nH]c2ccccc12)NC(=O)[C@H](CC(=O)O)NC(=O)[C@H](CC(=O)O)NC(=O)[C@H](CCC(=O)O)NC(=O)[C@@H]1CCCN1)[C@@H](C)O)C(=O)N[C@@H](CCCNC(=N)N)C(=O)N[C@@H](CCC(=O)O)C(=O)N[C@@H](C)C(=O)N[C@@H](CCCNC(=N)N)C(=O)N[C@@H](CCC(N)=O)C(=O)N[C@@H](C)C(=O)N[C@@H](C)C(=O)N[C@@H](C)C(=O)N[C@@H](CO)C(=O)N[C@@H](Cc1c[nH]cn1)C(=O)N[C@@H](C)C(=O)N1CCC[C@H]1C(=O)N[C@@H](CO)C(=O)O [AnkG LIR]
[12]; ITC
  binding to GABARAP stronger than almost all reported bindings between LIR motifs and Atg8s: ~1000 fold
[12]; isothermal titration calorimetry (ITC)
  Kd: ~2.6 nM and 2.6 nM
[13]
  binding to LC3 (in words): much weaker affinity than to GABARAPs
[14]
  Kd values of binding to the LC3s: hundreds to thousands
[3]
  binding to LGG-1 (in words): binds strongly
[4]
  weaker affinity towards LGG-2 than LGG-1: about 130 fold
[5]
  LC3-positive puncta number: only modestly reduced
[6]
  GABARAP-positive puncta number: potently inhibited
[7]
  p62-positive puncta versus mCherry vector control: obviously increased
[7]; COS7 cells
  p62 puncta increase compared with AnkB WT peptide: significantly lower
[8]; Cherry fusion, hyp7 promoter, epidermis, embryonic to adult stages
  SQST-1::GFP aggregates: caused accumulation of SQST-1::GFP aggregates
[8]; Phyp7::mCherry::AnkG peptides, hypodermis, L4 larvae
  SQST-1::GFP aggregates: a large number of SQST-1::GFP aggregates accumulate
[8]; mCherry::AnkG peptides, embryonic stage (FIG. 10B-D)
  SQST-1::GFP aggregates: accumulation of the SQST-1::GFP aggregates
